What was measured:
Conditions in all cases: exposure time: 72 h
E21 [1] = patient-derived glioblastoma stem cells of mesenchymal subtype; experiment: phenotypic distance (Euclidean, principal components) from DMSO controls (arbitrary units); higher = stronger morphological change
E31 [2] = patient-derived glioblastoma stem cells of proneural subtype; experiment: as above
E13 [3] = patient-derived glioblastoma stem cells of classical subtype; experiment: as above
E57 [4] = patient-derived glioblastoma stem cells of mesenchymal subtype; experiment: as above
E28 [5] = patient-derived glioblastoma stem cells of classical subtype; experiment: as above
E34 [6] = patient-derived glioblastoma stem cells of proneural subtype; experiment: as above
FT3469 [7] = normal neural stem cell line; experiment: as above
E21 [8] = experiment: surviving fraction (nuclei count normalised to DMSO); higher = more cells surviving (less toxic)
E31 [9] = experiment: as above
E13 [10] = experiment: as above
E57 [11] = experiment: as above
E28 [12] = experiment: as above
E34 [13] = experiment: as above
FT3469 [14] = experiment: as above
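Wherever phenotypic distance (Euclidean, principal components) from DMSO controls is given: cell Painting imaging in 384-well plates, CellProfiler features reduced to at least 20 principal components, Euclidean distance versus same-plate DMSO vehicle wells (0.1% v/v), median over six images per well.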
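Wherever surviving fraction (nuclei count normalised to DMSO) is given: nuclei counted by high-content imaging of Hoechst-stained cells in laminin-coated 384-well plates, relative to 0.1% DMSO vehicle wells, with staurosporine as cell-death control.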

OC[C@H]1O[C@@H](Oc2ccc(O)cc2)[C@H](O)[C@@H](O)[C@@H]1O [Arbutin]
Conditions | phenotypic distance | surviving fraction
E13 [3], 4.1 nM | 0.566 | –
E13 [3], 12.3 nM | 0.859 | –
E13 [3], 37 nM | 0.511 | –
E13 [3], 111.1 nM | 0.508 | –
E13 [3], 333.3 nM | 0.829 | –
E13 [3], 1000 nM | 0.191 | –
E13 [3], 3000 nM | 0.813 | –
E13 [10], 4.1 nM | – | 1.01
E13 [10], 12.3 nM | – | 1.04
E13 [10], 37 nM | – | 0.905
E13 [10], 111.1 nM | – | 0.917
E13 [10], 333.3 nM | – | 0.929
E13 [10], 1000 nM | – | 1.04
E13 [10], 3000 nM | – | 0.991
E21 [1], 4.1 nM | 0.434 | –
E21 [1], 12.3 nM | 1.06 | –
E21 [1], 37 nM | 0.902 | –
E21 [1], 111.1 nM | 0.857 | –
E21 [1], 333.3 nM | 0.484 | –
E21 [1], 1000 nM | 0.568 | –
E21 [1], 3000 nM | 0.491 | –
E21 [8], 4.1 nM | – | 1.03
E21 [8], 12.3 nM | – | 0.989
E21 [8], 37 nM | – | 1.07
E21 [8], 111.1 nM | – | 0.916
E21 [8], 333.3 nM | – | 1.05
E21 [8], 1000 nM | – | 0.971
E21 [8], 3000 nM | – | 0.967
E28 [5], 4.1 nM | 0.41 | –
E28 [5], 12.3 nM | 0.873 | –
E28 [5], 37 nM | 0.666 | –
E28 [5], 111.1 nM | 1.1 | –
E28 [5], 333.3 nM | 0.543 | –
E28 [5], 1000 nM | 0.716 | –
E28 [5], 3000 nM | 0.531 | –
E28 [12], 4.1 nM | – | 1.1
E28 [12], 12.3 nM | – | 1.03
E28 [12], 37 nM | – | 1.07
E28 [12], 111.1 nM | – | 1.15
E28 [12], 333.3 nM | – | 1.07
E28 [12], 1000 nM | – | 1.07
E28 [12], 3000 nM | – | 0.905
E31 [2], 4.1 nM | 0.898 | –
E31 [2], 12.3 nM | 0.639 | –
E31 [2], 37 nM | 0.606 | –
E31 [2], 111.1 nM | 0.754 | –
E31 [2], 333.3 nM | 0.505 | –
E31 [2], 1000 nM | 0.754 | –
E31 [2], 3000 nM | 0.805 | –
E31 [9], 4.1 nM | – | 0.937
E31 [9], 12.3 nM | – | 0.846
E31 [9], 37 nM | – | 0.945
E31 [9], 111.1 nM | – | 0.889
E31 [9], 333.3 nM | – | 1.05
E31 [9], 1000 nM | – | 1.13
E31 [9], 3000 nM | – | 0.884
E34 [6], 4.1 nM | 0.689 | –
E34 [6], 12.3 nM | 0.94 | –
E34 [6], 37 nM | 0.434 | –
E34 [6], 111.1 nM | 0.454 | –
E34 [6], 333.3 nM | 0.675 | –
E34 [6], 1000 nM | 0.496 | –
E34 [6], 3000 nM | 1.12 | –
E34 [13], 4.1 nM | – | 0.904
E34 [13], 12.3 nM | – | 1.15
E34 [13], 37 nM | – | 1.05
E34 [13], 111.1 nM | – | 1.02
E34 [13], 333.3 nM | – | 1.08
E34 [13], 1000 nM | – | 1.02
E34 [13], 3000 nM | – | 0.848
E57 [4], 4.1 nM | 0.568 | –
E57 [4], 12.3 nM | 0.753 | –
E57 [4], 37 nM | 0.629 | –
E57 [4], 111.1 nM | 0.522 | –
E57 [4], 333.3 nM | 0.897 | –
E57 [4], 1000 nM | 0.4 | –
E57 [4], 3000 nM | 0.484 | –
E57 [11], 4.1 nM | – | 0.949
E57 [11], 12.3 nM | – | 0.993
E57 [11], 37 nM | – | 1.11
E57 [11], 111.1 nM | – | 0.918
E57 [11], 333.3 nM | – | 1.07
E57 [11], 1000 nM | – | 1
E57 [11], 3000 nM | – | 1
FT3469 [7], 4.1 nM | 0.247 | –
FT3469 [7], 12.3 nM | 0.982 | –
FT3469 [7], 37 nM | 0.795 | –
FT3469 [7], 111.1 nM | 1.03 | –
FT3469 [7], 333.3 nM | 0.636 | –
FT3469 [7], 1000 nM | 1.1 | –
FT3469 [7], 3000 nM | 0.991 | –
FT3469 [14], 4.1 nM | – | 1.08
FT3469 [14], 12.3 nM | – | 0.99
FT3469 [14], 37 nM | – | 1.28
FT3469 [14], 111.1 nM | – | 0.987
FT3469 [14], 333.3 nM | – | 1.18
FT3469 [14], 1000 nM | – | 1.16
FT3469 [14], 3000 nM | – | 0.993

C/C(=C\c1csc(C)n1)[C@@H]1C[C@@H]2O[C@]2(C)CCC[C@H](C)[C@H](O)[C@@H](C)C(=O)C(C)(C)[C@@H](O)CC(=O)N1 [Ixabepilone]
Conditions | phenotypic distance | surviving fraction
E13 [3], 4.1 nM | 4.32 | –
E13 [3], 12.3 nM | 5.35 | –
E13 [3], 37 nM | 4.56 | –
E13 [3], 111.1 nM | 5.86 | –
E13 [3], 333.3 nM | 5.9 | –
E13 [3], 1000 nM | 6.44 | –
E13 [3], 3000 nM | 6.86 | –
E13 [10], 4.1 nM | – | 0.341
E13 [10], 12.3 nM | – | 0.286
E13 [10], 37 nM | – | 0.271
E13 [10], 111.1 nM | – | 0.193
E13 [10], 333.3 nM | – | 0.21
E13 [10], 1000 nM | – | 0.193
E13 [10], 3000 nM | – | 0.175
E21 [1], 4.1 nM | 6.26 | –
E21 [1], 12.3 nM | 5.66 | –
E21 [1], 37 nM | 6.8 | –
E21 [1], 111.1 nM | 5.59 | –
E21 [1], 333.3 nM | 6.55 | –
E21 [1], 1000 nM | 6.74 | –
E21 [1], 3000 nM | 6.15 | –
E21 [8], 4.1 nM | – | 0.229
E21 [8], 12.3 nM | – | 0.256
E21 [8], 37 nM | – | 0.211
E21 [8], 111.1 nM | – | 0.245
E21 [8], 333.3 nM | – | 0.286
E21 [8], 1000 nM | – | 0.259
E21 [8], 3000 nM | – | 0.243
E28 [5], 4.1 nM | 2.8 | –
E28 [5], 12.3 nM | 2.1 | –
E28 [5], 37 nM | 3.6 | –
E28 [5], 111.1 nM | 4.12 | –
E28 [5], 333.3 nM | 4.09 | –
E28 [5], 1000 nM | 3.46 | –
E28 [5], 3000 nM | 4.61 | –
E28 [12], 4.1 nM | – | 0.611
E28 [12], 12.3 nM | – | 0.6
E28 [12], 37 nM | – | 0.431
E28 [12], 111.1 nM | – | 0.464
E28 [12], 333.3 nM | – | 0.345
E28 [12], 1000 nM | – | 0.404
E28 [12], 3000 nM | – | 0.237
E31 [2], 4.1 nM | 2.61 | –
E31 [2], 12.3 nM | 3.43 | –
E31 [2], 37 nM | 3.83 | –
E31 [2], 111.1 nM | 4.57 | –
E31 [2], 333.3 nM | 4.48 | –
E31 [2], 1000 nM | 4.78 | –
E31 [2], 3000 nM | 4.08 | –
E31 [9], 4.1 nM | – | 0.269
E31 [9], 12.3 nM | – | 0.261
E31 [9], 37 nM | – | 0.172
E31 [9], 111.1 nM | – | 0.149
E31 [9], 333.3 nM | – | 0.137
E31 [9], 1000 nM | – | 0.208
E31 [9], 3000 nM | – | 0.157
E34 [6], 4.1 nM | 2.35 | –
E34 [6], 12.3 nM | 2.42 | –
E34 [6], 37 nM | 2.65 | –
E34 [6], 111.1 nM | 3.43 | –
E34 [6], 333.3 nM | 3.13 | –
E34 [6], 1000 nM | 3.44 | –
E34 [6], 3000 nM | 4.33 | –
E34 [13], 4.1 nM | – | 0.609
E34 [13], 12.3 nM | – | 0.672
E34 [13], 37 nM | – | 0.582
E34 [13], 111.1 nM | – | 0.531
E34 [13], 333.3 nM | – | 0.465
E34 [13], 1000 nM | – | 0.421
E34 [13], 3000 nM | – | 0.331
E57 [4], 4.1 nM | 6.02 | –
E57 [4], 12.3 nM | 5.51 | –
E57 [4], 37 nM | 5.64 | –
E57 [4], 111.1 nM | 5.48 | –
E57 [4], 333.3 nM | 7.37 | –
E57 [4], 1000 nM | 6.58 | –
E57 [4], 3000 nM | 6.89 | –
E57 [11], 4.1 nM | – | 0.172
E57 [11], 12.3 nM | – | 0.152
E57 [11], 37 nM | – | 0.128
E57 [11], 111.1 nM | – | 0.0952
E57 [11], 333.3 nM | – | 0.0774
E57 [11], 1000 nM | – | 0.0873
E57 [11], 3000 nM | – | 0.0627
FT3469 [7], 4.1 nM | 2.99 | –
FT3469 [7], 12.3 nM | 3.28 | –
FT3469 [7], 37 nM | 4.81 | –
FT3469 [7], 111.1 nM | 3.58 | –
FT3469 [7], 333.3 nM | 3.51 | –
FT3469 [7], 1000 nM | 4.06 | –
FT3469 [7], 3000 nM | 4.05 | –
FT3469 [14], 4.1 nM | – | 0.574
FT3469 [14], 12.3 nM | – | 0.624
FT3469 [14], 37 nM | – | 0.63
FT3469 [14], 111.1 nM | – | 0.677
FT3469 [14], 333.3 nM | – | 0.521
FT3469 [14], 1000 nM | – | 0.716
FT3469 [14], 3000 nM | – | 0.548

— the supplement of paper PMC13207355
